The source of these data is article PMC5218480 (PLoS ONE, 2017).

SMILES strings stand for the structures.

The test deals with MV-4-11 cells. Nature of the test: Gene expression microarray analysis (Affymetrix PrimeView) and GSEA. Conditions: ProbeSet 11730501_a_at; LIST D. More on the design: RFU PODN (11730768_x_at) / Fold change /veh PODN (11730768_x_at) / RFU LINC00158 (11744669_a_at) / Fold change /veh LINC00158 (11744669_a_at) / RFU DUSP10 (11751237_a_at) / Fold change /veh DUSP10 (11751237_a_at) / RFU ID3 (11757404_x_at) / Fold change /veh ID3 (11757404_x_at) / RFU PLEKHG5 (11737974_s_at) / Fold change /veh PLEKHG5 (11737974_s_at) / RFU LRRC4B (11730491_at) / Fold change /veh LRRC4B (11730491_at) / RFU GIMAP4 (11747438_a_at) / Fold change /veh GIMAP4 (11747438_a_at) / RFU KRT8 (11758183_x_at) / Fold change /veh KRT8 (11758183_x_at) / RFU CNN1 (11734310_a_at) / Fold change /veh CNN1 (11734310_a_at) / RFU VPS37D (11726825_at) / Fold change /veh VPS37D (11726825_at) / RFU C10orf10 (11716522_x_at) / Fold change /veh C10orf10 (11716522_x_at) / RFU KIR2DL2 /// KIR2DL4 /// KIR2DL5A /// KIR2DL5B /// KIR2DS1 /// KIR2DS2 /// KIR2DS3 /// KIR2DS4 /// KIR3DL3 /// KIR3DL3 /// KIR3DS1 (11738374_at) / Fold change /veh KIR2DL2 /// KIR2DL4 /// KIR2DL5A /// KIR2DL5B /// KIR2DS1 /// KIR2DS2 /// KIR2DS3 /// KIR2DS4 /// KIR3DL3 /// KIR3DL3 /// KIR3DS1 (11738374_at) / RFU C1QL1 (11718748_at) / Fold change /veh C1QL1 (11718748_at) / RFU TMPRSS4 (11747572_a_at) / Fold change /veh TMPRSS4 (11747572_a_at) / RFU HAMP (11756126_x_at) / Fold change /veh HAMP (11756126_x_at) / RFU RNFT2 (11725882_a_at) / Fold change /veh RNFT2 (11725882_a_at) / RFU NR4A2 (11747474_a_at) / Fold change /veh NR4A2 (11747474_a_at) / RFU ABCC12 (11746883_a_at) / Fold change /veh ABCC12 (11746883_a_at) / RFU TMEM136 (11760407_x_at) / Fold change /veh TMEM136 (11760407_x_at) / RFU CLDN22 /// WWC2 (11732394_at) / Fold change /veh CLDN22 /// WWC2 (11732394_at) / RFU HLA-DPB1 (11760878_x_at) / Fold change /veh HLA-DPB1 (11760878_x_at) / RFU SPINT1 (11716480_a_at) / Fold change /veh SPINT1 (11716480_a_at) / RFU GAP43 (11754022_s_at) / Fold change /veh GAP43 (11754022_s_at) / RFU A4GNT (11735810_at) / Fold change /veh A4GNT (11735810_at) / RFU PRB3 (11715151_x_at) / Fold change /veh PRB3 (11715151_x_at) / RFU TUBB4B (11761932_at) / Fold change /veh TUBB4B (11761932_at) / RFU CAPN14 (11732068_a_at) / Fold change /veh CAPN14 (11732068_a_at) / RFU TMCC2 (11721928_a_at) / Fold change /veh TMCC2 (11721928_a_at) / RFU IRGQ (11745062_a_at) / Fold change /veh IRGQ (11745062_a_at) / RFU FAM174B (11720279_a_at) / Fold change /veh FAM174B (11720279_a_at) / RFU TMPRSS4 (11748680_a_at) / Fold change /veh TMPRSS4 (11748680_a_at) / RFU FAM212B (11763350_a_at) / Fold change /veh FAM212B (11763350_a_at) / RFU PLEKHG5 (11743358_a_at) / Fold change /veh PLEKHG5 (11743358_a_at) / RFU ZSCAN30 (11745921_a_at) / Fold change /veh ZSCAN30 (11745921_a_at) / RFU CMKLR1 (11741424_a_at) / Fold change /veh CMKLR1 (11741424_a_at) / RFU LOC101060620 /// MAPK8IP1 (11723275_at) / Fold change /veh LOC101060620 /// MAPK8IP1 (11723275_at) / RFU SPTSSB (11747773_x_at) / Fold change /veh SPTSSB (11747773_x_at) / RFU PRSS12 (11739890_at) / Fold change /veh PRSS12 (11739890_at) / RFU BIN1 (11741810_x_at) / Fold change /veh BIN1 (11741810_x_at) / RFU WNT11 (11732464_a_at) / Fold change /veh WNT11 (11732464_a_at) / RFU C10orf10 (11716521_a_at) / Fold change /veh C10orf10 (11716521_a_at) / RFU C5orf56 (11738089_at) / Fold change /veh C5orf56 (11738089_at) / RFU CYB561 (11721691_x_at) / Fold change /veh CYB561 (11721691_x_at) / RFU ANKRD19P (11752326_a_at) / Fold change /veh ANKRD19P (11752326_a_at) / RFU OR2T12 /// OR2T33 /// OR2T8 (11738714_s_at) / Fold change /veh OR2T12 /// OR2T33 /// OR2T8 (11738714_s_at) / RFU VCAN (11748164_a_at) / Fold change /veh VCAN (11748164_a_at) / RFU JSRP1 (11732532_at) / Fold change /veh JSRP1 (11732532_at) / RFU KRTAP10-11 (11738290_x_at) / Fold change /veh KRTAP10-11 (11738290_x_at) / RFU MYO3A (11730013_a_at) / Fold change /veh MYO3A (11730013_a_at) / RFU EBF3 (11725865_a_at) / Fold change /veh EBF3 (11725865_a_at) / RFU CAMK2N1 (11719241_x_at) / Fold change /veh CAMK2N1 (11719241_x_at) / RFU C5orf56 (11738088_a_at) / Fold change /veh C5orf56 (11738088_a_at) / RFU OLFML3 (11715873_a_at) / Fold change /veh OLFML3 (11715873_a_at) / RFU LOC100653217 /// NTM (11731650_a_at) / Fold change /veh LOC100653217 /// NTM (11731650_a_at) / RFU MAPK11 (11762145_a_at) / Fold change /veh MAPK11 (11762145_a_at) / RFU FIZ1 (11724087_x_at) / Fold change /veh FIZ1 (11724087_x_at) / RFU OASL (11726364_x_at) / Fold change /veh OASL (11726364_x_at) / RFU SOX15 (11748057_x_at) / Fold change /veh SOX15 (11748057_x_at) / RFU CD79A (11719716_a_at) / Fold change /veh CD79A (11719716_a_at) / RFU HIST1H1D (11736915_at) / Fold change /veh HIST1H1D (11736915_at) / RFU CASKIN2 (11723855_a_at) / Fold change /veh CASKIN2 (11723855_a_at) / RFU LOC730098 (11760151_x_at) / Fold change /veh LOC730098 (11760151_x_at) / RFU OR4N2 (11742367_at) / Fold change /veh OR4N2 (11742367_at) / RFU PRRT2 (11749266_a_at) / Fold change /veh PRRT2 (11749266_a_at) / RFU SNX32 (11753110_a_at) / Fold change /veh SNX32 (11753110_a_at) / RFU CDHR5 (11726645_a_at) / Fold change /veh CDHR5 (11726645_a_at) / RFU RCAN1 (11760418_a_at) / Fold change /veh RCAN1 (11760418_a_at) / RFU FAM167A (11723789_a_at) / Fold change /veh FAM167A (11723789_a_at) / RFU FAM26E (11764081_at) / Fold change /veh FAM26E (11764081_at) / RFU ISYNA1 (11749810_s_at) / Fold change /veh ISYNA1 (11749810_s_at) / RFU ACY1 (11761880_at) / Fold change /veh ACY1 (11761880_at) / RFU 11764098_at / Fold change /veh 11764098_at / RFU SAMD14 (11745864_x_at) / Fold change /veh SAMD14 (11745864_x_at) / RFU NPB (11741838_a_at) / Fold change /veh NPB (11741838_a_at) / RFU TMPRSS6 (11731388_a_at) / Fold change /veh TMPRSS6 (11731388_a_at) / RFU KRTAP10-2 (11738614_at) / Fold change /veh KRTAP10-2 (11738614_at) / RFU ARHGAP8 /// PRR5-ARHGAP8 (11727945_x_at) / Fold change /veh ARHGAP8 /// PRR5-ARHGAP8 (11727945_x_at) / RFU KRTAP5-7 /// NADSYN1 (11734609_at) / Fold change /veh KRTAP5-7 /// NADSYN1 (11734609_at) / RFU RASL12 (11751679_a_at) / Fold change /veh RASL12 (11751679_a_at) / RFU CDKN2B (11736163_a_at) / Fold change /veh CDKN2B (11736163_a_at) / RFU PRF1 (11729649_at) / Fold change /veh PRF1 (11729649_at) / RFU, ZNF638 /// ZNF638-IT1 / Fold change vs veh, ZNF638 /// ZNF638-IT1 / RFU, PANK3 / Fold change vs veh, PANK3 / RFU, SH3YL1 / Fold change vs veh, SH3YL1 / RFU, ZEB2 / Fold change vs veh, ZEB2 / RFU, NRIP1 / Fold change vs veh, NRIP1 / RFU, PTTG1IP / Fold change vs veh, PTTG1IP / RFU, CAPN2 / Fold change vs veh, CAPN2 / RFU, MED14 / Fold change vs veh, MED14 / RFU, SNORA58 / Fold change vs veh, SNORA58 / RFU, C1orf63 / Fold change vs veh, C1orf63 / RFU, LRRFIP1 / Fold change vs veh, LRRFIP1 / RFU, NDUFAF7 / Fold change vs veh, NDUFAF7 / RFU, SLC12A2 / Fold change vs veh, SLC12A2 / RFU, IBTK / Fold change vs veh, IBTK / RFU, ESF1 / Fold change vs veh, ESF1 / Fold change vs veh, TMEM50B / RFU, TAOK1 / Fold change vs veh, TAOK1 / RFU, ACBD3 / Fold change vs veh, ACBD3 / RFU, TMA16 / Fold change vs veh, TMA16 / RFU, RWDD3 / Fold change vs veh, RWDD3 / RFU, BCAT1 / Fold change vs veh, BCAT1 / RFU, EDEM3 / Fold change vs veh, EDEM3 / RFU, TMEM33 / Fold change vs veh, TMEM33 / RFU, WDR75 / Fold change vs veh, WDR75 / RFU, AHCTF1 / Fold change vs veh, AHCTF1 / RFU, TFRC / Fold change vs veh, TFRC / RFU, ZDHHC17 / Fold change vs veh, ZDHHC17 / RFU, NOM1 / Fold change vs veh, NOM1 / RFU, ARL8B / Fold change vs veh, ARL8B / RFU, ZBTB11 / Fold change vs veh, ZBTB11 / RFU, TAMM41 / Fold change vs veh, TAMM41 / RFU, KIAA1704 /// LOC100996395 / Fold change vs veh, KIAA1704 /// LOC100996395 / RFU, ING1 / Fold change vs veh, ING1 / RFU, TRMT61B / Fold change vs veh, TRMT61B / RFU, FUBP3 / Fold change vs veh, FUBP3 / RFU, TP53 / Fold change vs veh, TP53 / RFU, TNKS2 / Fold change vs veh, TNKS2 / RFU, ZFP14 / Fold change vs veh, ZFP14 / RFU, ACTR2 / Fold change vs veh, ACTR2 / RFU, PPP3R1 / Fold change vs veh, PPP3R1 / RFU, PIK3R1 / Fold change vs veh, PIK3R1 / RFU, HNRNPA1 / Fold change vs veh, HNRNPA1 / RFU, RNF170 / Fold change vs veh, RNF170 / RFU, ZNF28 / Fold change vs veh, ZNF28 / RFU, RNGTT / Fold change vs veh, RNGTT / RFU, OGT / Fold change vs veh, OGT / RFU, BRD1 / Fold change vs veh, BRD1 / RFU, MARS / Fold change vs veh, MARS / RFU, ZNF655 / Fold change vs veh, ZNF655 / RFU, FAHD1 / Fold change vs veh, FAHD1 / RFU, BDP1 / Fold change vs veh, BDP1 / RFU, LRRCC1 / Fold change vs veh, LRRCC1 / RFU, ARID1A / Fold change vs veh, ARID1A / RFU, ZNF146 / Fold change vs veh, ZNF146 / RFU, ZNF330 / Fold change vs veh, ZNF330 / RFU, GPN3 / Fold change vs veh, GPN3 / RFU, C9orf123 / Fold change vs veh, C9orf123 / RFU, N4BP2L2 / Fold change vs veh, N4BP2L2 / RFU, ARFIP1 / Fold change vs veh, ARFIP1 / RFU, FAM179B / Fold change vs veh, FAM179B / RFU, BCL10 / Fold change vs veh, BCL10 / RFU, UHRF1BP1L / Fold change vs veh, UHRF1BP1L / RFU, BET1 / Fold change vs veh, BET1 / RFU, CNOT2 / Fold change vs veh, CNOT2 / RFU, ZNF268 / Fold change vs veh, ZNF268 / Fold change vs veh, ZNF507 / RFU, DGCR2 / Fold change vs veh, DGCR2 / RFU, WDSUB1 / Fold change vs veh, WDSUB1 / Fold change vs veh, HSP90B1 /// MIR3652 / RFU, ADSS / Fold change vs veh, ADSS / RFU, GK / Fold change vs veh, GK / RFU, ZNF148 / Fold change vs veh, ZNF148 / RFU, TAF9 / Fold change vs veh, TAF9 / RFU, SLC1A5 / Fold change vs veh, SLC1A5 / RFU, SLMO2 / Fold change vs veh, SLMO2 / RFU, ABCC4 / Fold change vs veh, ABCC4 / RFU, LOC101060439 /// RAP1B / Fold change vs veh, LOC101060439 /// RAP1B / RFU, RFX7 / Fold change vs veh, RFX7 / RFU, GTPBP10 / Fold change vs veh, GTPBP10 / RFU, CNEP1R1 / Fold change vs veh, CNEP1R1 / RFU, BIVM-ERCC5 /// ERCC5 / Fold change vs veh, BIVM-ERCC5 /// ERCC5 / RFU, ILF3 / Fold change vs veh, ILF3 / RFU 11762660_at / Fold change /veh 11762660_at / RFU VCAN (11757783_s_at) / Fold change /veh VCAN (11757783_s_at) / RFU DDX43 (11728927_at) / Fold change /veh DDX43 (11728927_at) / RFU KRT8 (11758188_x_at) / Fold change /veh KRT8 (11758188_x_at) / RFU NKD1 (11759106_at) / Fold change /veh NKD1 (11759106_at) / RFU SRD5A1 (11742802_a_at) / Fold change /veh SRD5A1 (11742802_a_at) / RFU TPSAB1 /// TPSB2 (11721975_s_at) / Fold change /veh TPSAB1 /// TPSB2 (11721975_s_at) / RFU GSTM3 (11746129_a_at) / Fold change /veh GSTM3 (11746129_a_at) / RFU IL23R (11737362_x_at) / Fold change /veh IL23R (11737362_x_at) / RFU TMEM51 (11727254_a_at) / Fold change /veh TMEM51 (11727254_a_at) / RFU PIWIL2 (11732686_x_at) / Fold change /veh PIWIL2 (11732686_x_at) / RFU ORM1 (11744905_x_at) / Fold change /veh ORM1 (11744905_x_at) / RFU CCDC152 (11743942_at) / Fold change /veh CCDC152 (11743942_at) / RFU ECM1 (11717891_a_at) / Fold change /veh ECM1 (11717891_a_at) / RFU IL23R (11748794_a_at) / Fold change /veh IL23R (11748794_a_at) / RFU TNFAIP8L3 (11732012_x_at) / Fold change /veh TNFAIP8L3 (11732012_x_at) / RFU MBOAT4 (11741988_at) / Fold change /veh MBOAT4 (11741988_at) / RFU 11764193_at / Fold change /veh 11764193_at / RFU TMEM53 (11763286_at) / Fold change /veh TMEM53 (11763286_at) / RFU MAGEB2 (11727129_at) / Fold change /veh MAGEB2 (11727129_at) / RFU TMEM200A (11744735_a_at) / Fold change /veh TMEM200A (11744735_a_at) / RFU CCDC152 (11751479_a_at) / Fold change /veh CCDC152 (11751479_a_at) / RFU FAM211A (11726209_a_at) / Fold change /veh FAM211A (11726209_a_at) / RFU RGS16 (11746705_a_at) / Fold change /veh RGS16 (11746705_a_at) / RFU VCAN (11755009_s_at) / Fold change /veh VCAN (11755009_s_at) / RFU RHOB (11743442_s_at) / Fold change /veh RHOB (11743442_s_at) / RFU RGS16 (11720943_a_at) / Fold change /veh RGS16 (11720943_a_at) / RFU RGS16 (11720944_at) / Fold change /veh RGS16 (11720944_at) / RFU, VPS4B / Fold change vs veh, VPS4B / RFU, CREB1 / Fold change vs veh, CREB1 / RFU, DNAJC13 / Fold change vs veh, DNAJC13 / RFU, GNAQ / Fold change vs veh, GNAQ / RFU, CDK5R1 / Fold change vs veh, CDK5R1 / RFU, ZRANB3 / Fold change vs veh, ZRANB3 / RFU, CUL4A / Fold change vs veh, CUL4A / RFU, CCNY / Fold change vs veh, CCNY / RFU, UFL1 / Fold change vs veh, UFL1 / RFU, COG3 / Fold change vs veh, COG3 / RFU, DIAPH2 / Fold change vs veh, DIAPH2 / RFU, SKA2 / Fold change vs veh, SKA2 / RFU, AFF3 / Fold change vs veh, AFF3 / RFU, LMF1 / Fold change vs veh, LMF1 / RFU, IPO11 / Fold change vs veh, IPO11 / RFU, DFFB / Fold change vs veh, DFFB / RFU, FOXP1 / Fold change vs veh, FOXP1 / RFU, CARD8 / Fold change vs veh, CARD8 / RFU, STRN3 / Fold change vs veh, STRN3 / RFU, ADK / Fold change vs veh, ADK / RFU, RASSF2 / Fold change vs veh, RASSF2 / RFU, WIPF1 / Fold change vs veh, WIPF1 / RFU, LARP1B / Fold change vs veh, LARP1B / RFU, RASA1 / Fold change vs veh, RASA1 / RFU, RB1 / Fold change vs veh, RB1 / RFU, PPFIA1 / Fold change vs veh, PPFIA1 / RFU, MAT2A / Fold change vs veh, MAT2A / RFU, CCT5 / Fold change vs veh, CCT5 / RFU, WDR92 / Fold change vs veh, WDR92 / RFU, CUX1 / Fold change vs veh, CUX1 / RFU, TTC7A / Fold change vs veh, TTC7A / RFU, TMEM135 / Fold change vs veh, TMEM135 / RFU, DEPTOR / Fold change vs veh, DEPTOR / RFU, CPM / Fold change vs veh, CPM / RFU, DNAJB6 / Fold change vs veh, DNAJB6 / RFU, CACNA2D3 / Fold change vs veh, CACNA2D3 / RFU, DTX4 / Fold change vs veh, DTX4 / RFU, TFCP2 / Fold change vs veh, TFCP2 / RFU, GMCL1 /// GMCL1P1 / Fold change vs veh, GMCL1 /// GMCL1P1 / RFU, AEBP2 / Fold change vs veh, AEBP2 / RFU, SNHG1 /// SNORD22 /// SNORD25 /// SNORD26 /// SNORD27 /// SNORD28 /// SNORD29 /// SNORD31 / Fold change vs veh, SNHG1 /// SNORD22 /// SNORD25 /// SNORD26 /// SNORD27 /// SNORD28 /// SNORD29 /// SNORD31 / Fold change (Aza/veh), C12orf56 (ProbeSet 11735607_a_at) / Fold change (ACY-1035/veh), C12orf56 (ProbeSet 11735607_a_at) / Fold change (Aza/veh), FGFR1OP (ProbeSet 11751329_s_at) / Fold change (ACY-1035/veh), FGFR1OP (ProbeSet 11751329_s_at) / Fold change (Aza/veh), VPS36 (ProbeSet 11739960_a_at) / Fold change (ACY-1035/veh), VPS36 (ProbeSet 11739960_a_at) / RFU SYPL1 (11715823_x_at) / Fold change /veh SYPL1 (11715823_x_at) / RFU IGFBP7 (11715501_s_at) / Fold change /veh IGFBP7 (11715501_s_at) / RFU REEP3 (11722064_at) / Fold change /veh REEP3 (11722064_at) / RFU IGLL1 (11728026_x_at) / Fold change /veh IGLL1 (11728026_x_at): dose or concentration left out as unconfirmed. Format: cell-based, human.

For the molecule `Nc1ncn([C@@H]2O[C@H](CO)[C@@H](O)[C@H]2O)c(=O)n1` [azacitidine], the “RFU, CACNA2D3” value worked out at 122.12 RFU.
